What follows are compounds tested on MV-4-11 cells (assay: Oncology cell growth assay MV-4-11 (CellTiter Glo)). Conditions: Homo sapiens, MV4-11, 72 h; MV-4-11, 3d growth; read-out: Cell activity (IC50 μM) MV-4-11 3d-Growth.
Format: cell-based
Source text: Published bromodomain inhibitors JQ1 and iBET 151 have shown activity in variety of cancer cells such leukemia and lymphoma, multiple myeloma cells, NUT midline carcinoma and glioblastoma cells (Dawson M A et al. 2011; Delmore J E 2011; Chen Z et al. 2013; Filippakopoulos P et al. 2010; Mertz J A et al. 2011; Ott C J et al. 2012). In this study, we test compounds in different cancer cell lines. MV-4-11 and MOLM-13 are AML cell lines harboring a MLL-AF4 and MLL-AF9 translocation, respectively. MM.1S is a multiple myeloma cell line. SK-N-AS, IMR-32 and SK-N-BE(2) are neuroblastoma cell lines. IMR-32 and SK-N-BE(2) cell lines harbor MYCN amplifications.
MV-4-11, MM.1S, IMR-32, SK-N-AS and SK-N-BE(2) were obtained from ATCC (IL, USA) and MOLM-13 were purchased from DSMZ (Braunschweig, German). Cells are cultured as recommended by their sources. For growth inhibition studies 3000 cells are seeded in wells of a 96-well plate in 75 μL of culture media. After several hours, growth media containing compounds of formula (I) are added to the wells. Compound at a maximal concentration of 5 mM was serially diluted 1:3 for a total of 8 point titration with DMSO as a control. A 1 μL aliquot of each dilution point is added to 249 μL growth media and 75 μL is added to each well containing cells, providing 10 μM compound at the maximum concentration point. The final concentration of DMSO in all wells is 0.2%. Cells are incubated for 72 hours, and 25 μL of CellTiter Glo Reagent (Promega GA, USA) is added to each well. Plates are shaken for approximately 10 minutes and chemiluminescent signal is read on Tecan microplate reader. The measured luminescence correlates directly with cell number.
All data is normalized to the mean of eight DMSO high control wells on each plate. A four parameter curve fit of the following formula was then applied: Y=a+(b−a)/(1+(x/c)^d) Where ‘a’ is the minimum, ‘b’ is the maximum, ‘c’ is the pIC50 and ‘d’ is the Hill slope. […] Myc Reporter Assay

Question: With Cc1noc(C)c1-c1cnc2c(I)cn(Cc3ccccc3C#N)c2c1 [P-0921, 2-[[6-(3,5-dimethylisoxazol-4-yl)-3-iodo-pyrrolo[3,2-b]pyridin-1-yl]methyl]benzonitrile] as the compound, how does the IC50 read?
Answer: Its IC50 is less than 1 µM.

Question: Which IC50 does the source give for Cc1noc(C)c1-c1ccc2c(I)cn([C@@H](C)c3ccccn3)c2c1 [P-1051, 4-[3-iodo-1-[(1S)-1-(2-pyridyl)ethyl]indol-6-yl]-3,5-dimethyl-isoxazole] here?
Answer: Its IC50 is 1 to 10 µM.

Question: COC(=O)c1ccc(-c2c[nH]c3cc(-c4c(C)noc4C)cnc23)cc1 [P-1033, methyl 4-[6-(3,5-dimethylisoxazol-4-yl)-1H-pyrrolo[3,2-b]pyridin-3-yl]benzoate] was tested. Which IC50 did it give?
Answer: The IC50 was 1 to 10 µM.

The compounds below were run on bromodomain (assay: at least one of the bromodomain cell assays of Example 57). Conditions: at least one of the bromodomain cell assays described in Example 57; read-out: IC50 in at least one of the bromodomain cell assays.
Format: cell-based

Question: Which IC50 does the source give for Cc1noc(C)c1-c1cnc2c(-c3ccc(C4(C(=O)O)CC4)cc3)cn(CC3CCOCC3)c2c1 [P-0772, 1-[4-[6-(3,5-dimethylisoxazol-4-yl)-1-(tetrahydropyran-4-ylmethyl)pyrrolo[3,2-b]pyridin-3-yl]phenyl]cyclopropanecarboxylic acid] here?
Answer: Its IC50 is less than 10 µM.

Question: With Cc1noc(C)c1-c1cnc2c(F)cn([C@@H](c3ccccc3)c3ccccn3)c2c1 [P-0712, 4-[3-fluoro-1-[(S)-phenyl(2-pyridyl)methyl]pyrrolo[3,2-b]pyridin-6-yl]-3,5-dimethyl-isoxazole] as the compound, how does the IC50 read?
Answer: Its IC50 is less than 10 µM.

Question: For Cc1noc(C)c1-c1cnc2c(-c3ccc(C(=O)O)cc3)cn(C(c3ccccc3)c3ccccc3)c2c1 [P-0620, 4-[1-benzhydryl-6-(3,5-dimethylisoxazol-4-yl)pyrrolo[3,2-b]pyridin-3-yl]benzoic acid], which IC50 is on record?
Answer: Its IC50 is less than 10 µM.

Question: With Cc1noc(C)c1-c1cnc2c(-c3ccc4c(c3)COC4=O)cn(CC3CCC(F)(F)CC3)c2c1 [P-0796, 5-[1-[(4,4-difluorocyclohexyl)methyl]-6-(3,5-dimethylisoxazol-4-yl)pyrrolo[3,2-b]pyridin-3-yl]-3H-isobenzofuran-1-one] as the compound, how does the IC50 read?
Answer: The IC50 was less than 10 µM.

Question: With Cc1noc(C)c1-c1ccc2c(-c3cnn(C)c3)cn(S(=O)(=O)C3CCCC3)c2c1 [P-0231, 4-[1-cyclopentyl-sulfonyl-3-(1-methyl-pyrazol-4-yl)indol-6-yl]-3,5-dimethyl-isoxazole] as the compound, how does the IC50 read?
Answer: The IC50 was less than 10 µM.

Question: Cc1noc(C)c1-c1cnc2c(I)cn(C(c3ccccc3)c3ccccc3)c2c1 [P-0616, 4-(1-benzhydryl-3-iodo-pyrrolo[3,2-b]pyridin-6-yl)-3,5-dimethyl-isoxazole] was tested. Which IC50 did it give?
Answer: Its IC50 is less than 10 µM.

Question: With Cc1noc(C)c1-c1ccc2c(-c3ccc(C4(C(=O)O)CC4)cc3)cn(CC3CCC(F)(F)CC3)c2c1 [P-0748, 1-[4-[1-[(4,4-difluorocyclohexyl)methyl]-6-(3,5-dimethylisoxazol-4-yl)indol-3-yl]phenyl]cyclopropanecarboxylic acid] as the compound, how does the IC50 read?
Answer: The IC50 was less than 10 µM.

Question: How did the IC50 turn out when CCOC(=O)c1ccc(-c2cn([C@@H](c3ccccc3)c3ccccn3)c3cc(-c4c(C)noc4C)cnc23)cc1 [P-0716, ethyl 4-[6-(3,5-dimethylisoxazol-4-yl)-1-[(S)-phenyl(2-pyridyl)methyl]pyrrolo[3,2-b]pyridin-3-yl]benzoate] was run?
Answer: The IC50 was less than 10 µM.

Question: For Cc1ccc(-c2cn([C@@H](c3ccccc3)c3ccccn3)c3cc(-c4c(C)noc4C)ccc23)cc1 [P-0789, 3,5-dimethyl-4-[1-[(S)-phenyl(2-pyridyl)methyl]-3-(p-tolyl)indol-6-yl]isoxazole], which IC50 is on record?
Answer: Its IC50 is less than 10 µM.

Question: Which IC50 does the source give for Cc1noc(C)c1-c1cnc2c(-c3ccc4c(c3)OC(=O)C4)cn(CC3CCC(F)(F)CC3)c2c1 [P-0800, 6-[1-[(4,4-difluorocyclohexyl)methyl]-6-(3,5-dimethylisoxazol-4-yl)pyrrolo[3,2-b]pyridin-3-yl]-3H-benzofuran-2-one] here?
Answer: Its IC50 is less than 10 µM.

Question: Cc1ccc(-c2cn(CC3CCCCC3)c3cc(-c4c(C)noc4C)cnc23)cc1 [P-0622] was tested. Which IC50 did it give?
Answer: Its IC50 is less than 10 µM.

Question: Which IC50 does the source give for Cc1noc(C)c1-c1ccc2c(-c3ccc(C#N)nc3)cn([C@@H](c3ccccc3)c3ccccn3)c2c1 [P-0754, 5-[6-(3,5-dimethylisoxazol-4-yl)-1-[(S)-phenyl(2-pyridyl)methyl]indol-3-yl]pyridine-2-carbonitrile] here?
Answer: Its IC50 is less than 10 µM.

Question: For Cc1noc(C)c1-c1cnc2c(c1)c(C(c1ccccc1)c1ccccc1)cn2-c1ccc(C(=O)O)cc1 [P-0740, 4-[3-benzhydryl-5-(3,5-dimethylisoxazol-4-yl)pyrrolo[2,3-b]pyridin-1-yl]benzoic acid], which IC50 is on record?
Answer: Its IC50 is less than 10 µM.

Question: Cc1noc(C)c1-c1cnc2[nH]cc(C(c3ccccc3)c3ccccc3)c2c1 [P-0738, 4-(3-benzhydryl-1H-pyrrolo[2,3-b]pyridin-5-yl)-3,5-dimethyl-isoxazole] was tested. Which IC50 did it give?
Answer: Its IC50 is less than 10 µM.

Question: Which IC50 does the source give for Cc1noc(C)c1-c1ccc2c(-c3cnn(C)c3)cn(S(=O)(=O)c3ccccc3)c2c1 [P-0230, 4-[1-(benzenesulfonyl)-3-(1-methylpyrazol-4-yl)indol-6-yl]-3,5-dimethyl-isoxazole] here?
Answer: Its IC50 is less than 10 µM.

Question: With COC(=O)c1ccc(-c2cn([C@H](c3ccccc3)c3ccccn3)c3cc(-c4c(C)noc4C)cnc23)cc1 [P-0726, methyl 4-[6-(3,5-dimethylisoxazol-4-yl)-1-[(R)-phenyl(2-pyridyl)methyl]pyrrolo[3,2-b]pyridin-3-yl]benzoate] as the compound, how does the IC50 read?
Answer: The IC50 was less than 10 µM.

Question: Which IC50 does the source give for COC(=O)c1ccc(-c2cn(CC3CCCCC3)c3cc(-c4c(C)noc4C)cnc23)cc1 [P-0706, methyl 4-[1-(cyclohexylmethyl)-6-(3,5-dimethylisoxazol-4-yl)pyrrolo[3,2-b]pyridin-3-yl]benzoate] here?
Answer: The IC50 was less than 10 µM.

Question: For Cc1noc(C)c1-c1cnc2c(-c3ccc([N+](=O)[O-])nc3)cn([C@@H](c3ccccc3)c3ccccn3)c2c1 [P-0719, 3,5-dimethyl-4-[3-(6-nitro-3-pyridyl)-1-[(S)-phenyl(2-pyridyl)methyl]pyrrolo[3,2-b]pyridin-6-yl]isoxazole], which IC50 is on record?
Answer: Its IC50 is less than 10 µM.

Question: With Cc1noc(C)c1-c1cnc2c(F)cn([C@H](c3ccccc3)c3ccccn3)c2c1 [P-0723, 4-[3-fluoro-1-[(R)-phenyl(2-pyridyl)methyl]pyrrolo[3,2-b]pyridin-6-yl]-3,5-dimethyl-isoxazole] as the compound, how does the IC50 read?
Answer: The IC50 was less than 10 µM.

Question: C[C@@H](c1ccccn1)n1cc(-c2ccc(C(=O)O)cc2)c2ncc(-c3cc(Cl)c(=O)n(C)c3)cc21 [P-0766, 4-[6-(5-chloro-1-methyl-6-oxo-3-pyridyl)-1-[(1S)-1-(2-pyridyl)ethyl]pyrrolo[3,2-b]pyridin-3-yl]benzoic acid] was tested. Which IC50 did it give?
Answer: Its IC50 is less than 10 µM.

Question: With Cc1noc(C)c1-c1cnc2c(-c3ccc(C(C)(C)C)cc3)cn([C@H](c3ccccc3)c3ccccn3)c2c1 [P-0814, 4-[3-(4-tert-butylphenyl)-1-[(R)-phenyl(2-pyridyl)methyl]pyrrolo[3,2-b]pyridin-6-yl]-3,5-dimethyl-isoxazole] as the compound, how does the IC50 read?
Answer: The IC50 was less than 10 µM.

Question: With Cc1noc(C)c1-c1cnc2c(-c3ccc(C(=O)OC(C)C)cc3)cn([C@H](c3ccccc3)c3ccccn3)c2c1 [P-0728, isopropyl 4-[6-(3,5-dimethylisoxazol-4-yl)-1-[(R)-phenyl(2-pyridyl)methyl]pyrrolo[3,2-b]pyridin-3-yl]benzoate] as the compound, how does the IC50 read?
Answer: The IC50 was less than 10 µM.

Question: Cc1noc(C)c1-c1cnc2c(-c3ccc(B(O)O)cc3)cn([C@@H](c3ccccc3)c3ccccn3)c2c1 [P-0718, [4-[6-(3,5-dimethylisoxazol-4-yl)-1-[(S)-phenyl(2-pyridyl)methyl]pyrrolo[3,2-b]pyridin-3-yl]phenyl]boronic acid] was tested. Which IC50 did it give?
Answer: Its IC50 is less than 10 µM.

Question: Which IC50 does the source give for Cc1nnn(C)c1-c1cnc2c(-c3ccc(C(C)(C)C)cc3)cn(CC3CCC(F)(F)CC3)c2c1 [P-0810, 3-(4-tert-butylphenyl)-1-[(4,4-difluorocyclohexyl)methyl]-6-(3,5-dimethyltriazol-4-yl)pyrrolo[3,2-b]pyridine] here?
Answer: Its IC50 is less than 10 µM.

Question: Cc1noc(C)c1-c1cnc2c(-c3ccc(C4(C(=O)O)CC4)cc3)cn(CC3(C)CCOCC3)c2c1 [P-0777, 1-[4-[6-(3,5-dimethylisoxazol-4-yl)-1-[(4-methyltetrahydropyran-4-yl)methyl]pyrrolo[3,2-b]pyridin-3-yl]phenyl]cyclopropanecarboxylic acid] was tested. Which IC50 did it give?
Answer: The IC50 was less than 10 µM.

Question: For Cc1cc(-c2ccc3c(-c4ccc(C(=O)O)cc4)cn(CC4CCCCC4)c3c2)cn(C)c1=O [P-0760, 4-[1-(cyclohexylmethyl)-6-(1,5-dimethyl-6-oxo-3-pyridyl)indol-3-yl]benzoic acid], which IC50 is on record?
Answer: The IC50 was less than 10 µM.

Question: Which IC50 does the source give for Cc1noc(C)c1-c1ccc2c(-c3ccc(B(O)O)cc3)cn(CC3CCC(F)(F)CC3)c2c1 [P-0749, [4-[1-[(4,4-difluorocyclohexyl)methyl]-6-(3,5-dimethylisoxazol-4-yl)indol-3-yl]phenyl]boronic acid] here?
Answer: Its IC50 is less than 10 µM.

Question: With Cc1ccc(-c2cn([C@@H](c3ccccc3)c3ccccn3)c3cc(-c4c(C)noc4C)cnc23)cc1 [P-0714, 3,5-dimethyl-4-[1-[(S)-phenyl(2-pyridyl)methyl]-3-(p-tolyl)pyrrolo[3,2-b]pyridin-6-yl]isoxazole] as the compound, how does the IC50 read?
Answer: The IC50 was less than 10 µM.

— patent publication US10519177B2, “Heterocyclic compounds and uses thereof” (Plexxikon Inc., priority 2013, dated 2019)
